Holding throughout (experiment): NCI-60 cell line screen, 48 h
For assay [1], the system named is NCI-H460 lung.
For assay [2], the system named is SNB-75 CNS.
In assay [3] the test system is BT-549 breast.
In assay [4] the test system is K-562 leukemia.
Assay [5] concerns UACC-257 melanoma.
Assay [6] has as its system HCC-2998 colon.
The test system of assay [7] is SW-620 colon.
Assay [8] has as its system MDA-N.
For assay [9], the system named is M14 melanoma.
The test system of assay [10] is COLO 205 colon.

Several values for one entry are separate records, joined by “and”; a condition that tells them apart may be missing. Equal values may be shown once.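 Interpolation was linear, between the two tested concentrations surrounding the appropriate level; five concentrations were tested over 48 hours in 96-well plates. GI50: concentration for 50% inhibition of growth. TGI marks complete inhibition of growth.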 Where a SMILES comes first, the peptide text is derived from it. [ ]: non-standard residue; d: D form. The star is where a group is joined. ξ: configuration not given here. NMeY = CN[C@@H](Cc1ccc(O)cc1)C(=O)O; Cbz = O=C(OCc1ccccc1)*; ξA = CC(N)C(=O)O A value given as a limit tells only on which side of the number the result lay.

Consider `O=C(c1ccccc1F)c1c(NCc2ccccc2)c(=O)c1=O`, for which the TGI in [1], in assay [2], in assay [3], in assay [4], in assay [5] and in assay [6] was over 100 µM throughout. Also, the TGI in assay [7], in assay [8], in [9] and in assay [10] was over 100 µM in each case.

For `Oc1ccc2ccccc2c1-c1nnc(CCCCCCCCc2nnc(-c3c(O)ccc4ccccc34)o2)o1`, the GI50 was 0.715 µM in assay [1]; 27.2 µM in assay [2]; 1.68 µM in assay [4]; 2.26 µM in assay [5]; 5.04 µM in assay [6]; 2.67 µM in [8]. Moreover, the GI50 in assay [9] was 4.77 µM; in assay [10], 5.99 µM. Further, the TGI was 25 µM and > 47.2 µM in [1]; 25 µM and > 100 µM in [2]; over 100 µM in assay [3]; 25 µM and > 57.5 µM in [4]; 25 µM and > 100 µM in [5]; 11.9 µM and > 62.1 µM in assay [6]. The TGI was 25 µM and > 43.2 µM in assay [7]; 25 µM and 55.1 µM in assay [9]; 15 µM and > 44.9 µM in assay [10].

As to `[N-]=[N+]=NC1(c2ccccc2)C(=O)Nc2ccccc2C1=O` (stereo not drawn), the TGI in assay [1] was over 100 µM; in assay [2], over 100 µM; in assay [3], 34.8 µM; in assay [4], over 100 µM; in [5], over 100 µM; in assay [6] it was over 100 µM. The TGI in assay [7] was 82.4 µM; in assay [8], over 100 µM; in assay [9] it was 74.6 µM; in assay [10], over 100 µM.

For the molecule `CCOC(=O)CCC(NC(=O)OCc1ccccc1)C(=O)NNC(=O)OC(C)(C)C` (stereo not drawn), the TGI in [1], in [2], in assay [3], in assay [4], in assay [5] and in assay [6] was over 100 µM throughout. Moreover, the TGI in [7], in [8], in assay [9] and in [10] was over 100 µM each time.

As to `COc1ccccc1C(=O)c1c(N2CCCCC2)c(=O)c1=O`, the TGI in [1], in assay [2], in assay [3], in assay [4], in assay [5] and in assay [6] was over 100 µM throughout. Also, the TGI in assay [7], in assay [8], in assay [9] and in assay [10] was over 100 µM in each case.

For `COc1ccc(C[C@@H](C(=O)NCC(N)=O)N(C)C(=O)[C@@H]2CCCN2C(=O)[C@H](CC(C)C)NC(=O)C(C)NC(=O)OCc2ccccc2)cc1` (stereo partly drawn) (Cbz-[ξA]LP[NMeY](Me)G-NH2), the TGI in [1], in [2], in [3], in assay [4], in assay [5] and in [6] was over 100 µM each time. Moreover, the TGI in assay [7], in assay [8], in assay [9] and in [10] was over 100 µM each time.

Consider `CCCCCCCCCCCCCCCCP(=O)(O)OP(=O)(O)OCC1OC(n2ccc(N)nc2=O)C(O)C1O` (stereo not drawn), for which the TGI is over 100 µM in assay [1]; 60.6 µM and 45.8 µM in [2]; over 100 µM in [3]; over 100 µM in assay [4]; over 100 µM in assay [5]; > 100 µM and 91.2 µM in [6]. Moreover, the TGI in assay [7] is > 100 µM and 59 µM; in assay [8], over 100 µM; in [9], over 100 µM; in [10], over 100 µM. The GI50 in assay [3] was > 100 µM and 24.3 µM; in assay [5] it was > 100 µM and 41.8 µM; in assay [6], 99.7 µM and 17 µM; in assay [7], > 100 µM and 14.4 µM; in [8], > 100 µM and 40.4 µM; in [10], 54.7 µM and 19 µM.

In the case of `Cc1[nH]c(=O)nc(N/N=C/c2ccc(Cl)c(Cl)c2)c1C(=O)Nc1ccc(Cl)c(Cl)c1`, the TGI in assay [1] is over 49.6 µM; in assay [2], 35.3 µM; in assay [3], 39.7 µM; in assay [4], over 100 µM; in [5], over 41 µM; in assay [6] it was over 100 µM. Moreover, the TGI in [7] is over 30 µM; in [8] it was 39.7 µM; in assay [9], 15.7 µM; in [10] it was over 44.1 µM.

Regarding `CC1(C)OC[C@@H](/C=C\CCO[Si](c2ccccc2)(c2ccccc2)C(C)(C)C)N1C(=O)c1ccccc1`, the TGI in [1] is 17.3 µM; in assay [2], over 100 µM; in assay [3] it was over 100 µM; in [4] it was 52.1 µM; in assay [5], 24.1 µM; in assay [6], 21.4 µM. Besides, the TGI in [7] was over 100 µM; in [8] it was over 100 µM; in assay [9], 32.8 µM; in assay [10], 21.9 µM.

As for `O=c1oc2ccccc2cc1-c1nc2ccc([N+](=O)[O-])cc2o1`, the TGI in assay [1], in assay [2], in assay [3], in [4], in [5] and in [6] was over 100 µM throughout. Besides, the TGI in assay [7], in [8], in [9] and in assay [10] was over 100 µM each time.

`Cc1cs/c(=N\C(P(=O)(O)O)P(=O)(O)O)n1C`: the TGI in [1], in [2], in assay [3], in assay [4], in assay [5] and in [6] was over 100 µM throughout. Moreover, the TGI in assay [7], in assay [8], in [9] and in [10] was over 100 µM each time.

For `c1ccc2c(c1)CC1c3[nH]c4ccccc4c3CCN21` (stereo not drawn), the TGI in assay [1], in assay [2], in assay [3], in [4], in assay [5] and in assay [6] was over 10 µM each time. Also, the TGI in [7], in [8], in assay [9] and in assay [10] was over 10 µM throughout.

As to `CC1=NN(c2ccc(C)cc2)C2(C1)SCC(=O)N2c1nc2ccccc2s1` (stereo not drawn), the TGI is 56.5 µM in assay [1]; 64.7 µM in assay [2]; over 100 µM in assay [3]; over 100 µM in [4]; 55.1 µM in [5]; 48.3 µM in [6]. Further, the TGI in assay [7] was over 100 µM; in assay [8], 70.2 µM; in assay [9], over 100 µM; in assay [10], 57.9 µM.

On to `CCCCn1cc(C(=O)O)c(=O)c2c3sccc3ccc21`, for which the TGI in assay [1], in [2], in [3], in assay [4], in assay [5] and in assay [6] was over 100 µM throughout. Besides, the TGI in assay [7], in assay [8], in [9] and in assay [10] was over 100 µM each time.

As for `O=C1CCC2(CC1)Cc1ccccc1C2O` (stereo not drawn), the TGI in assay [1], in assay [2], in assay [3], in [4], in assay [5] and in assay [6] was over 100 µM each time. Besides, the TGI in assay [7], in assay [8], in [9] and in assay [10] was over 100 µM throughout.

As for `CCCCCCCCCCCCCCCCOCC(CC(F)(F)P(=O)(O)O)OC(C)=O` (stereo not drawn), the TGI in assay [1], in assay [2], in assay [3], in [4], in [5] and in assay [6] was over 50 µM each time. Also, the TGI in [7], in [8], in assay [9] and in assay [10] was over 50 µM each time.

As for `C/C(=N\N=C(N)N)c1c(C(=O)OCCCCCCOC(=O)c2nc3sccn3c2/C(C)=N/N=C(N)N)nc2sccn12`, the TGI in assay [1] is over 100 µM; in assay [2], over 100 µM; in [3] it was over 100 µM; in assay [4], 50.1 µM; in assay [5] it was over 100 µM; in [6], over 100 µM. Moreover, the TGI in assay [7], in assay [8], in assay [9] and in assay [10] was over 100 µM throughout.

On to `CSc1c(C(C)=O)c(O)n(-c2ccc(Cl)cc2)c(=O)c1C#N`, for which the TGI in assay [1] was over 100 µM; in assay [2] it was over 100 µM; in [3], over 100 µM; in [4], 92.2 µM; in assay [5], over 100 µM; in [6], over 100 µM. Also, the TGI was over 100 µM in assay [7], over 100 µM in assay [8], over 100 µM in assay [9] and 65.6 µM in assay [10].

For the molecule `O=C1c2ccccc2S(=O)(=O)c2ccccc21`, the TGI in [1], in [2], in assay [3], in assay [4], in [5] and in assay [6] was over 100 µM throughout. The TGI in [7], in [8], in [9] and in [10] was over 100 µM throughout.

In the case of `CN(C)c1ccc(-c2nc(-c3cc4c(ccc5ccccc54)oc3=O)cs2)cc1`, the TGI in assay [1], in [2], in [3], in assay [4], in [5] and in assay [6] was over 100 µM in each case. The TGI in assay [7], in assay [8], in assay [9] and in assay [10] was over 100 µM each time.

The values are drawn from PubChem BioAssay (NCI).
